Tested on: 889142-216-R-J1-PDC complex spheroid viability
Assay: Anticancer human tumor 889142-216-R-J1-PDC patient-derived bladder carcinoma cell line growth inhibition [POLQ]
Conditions: for IC50: curve of first compound; for viability, T/C: stronger effect = lower value; active = viability on the fitted dose curve at most 10% of control; inactive = the rest
Outline: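 PDC + HUVEC + MSC complex spheroids; POLQ inhibitors ± partner drugs; top conc. at/near clinical Cmax, else 10 microM (SN-38 1 microM), half-log dilutions; 37 degrees C, 5% CO2.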

[1] = second compound 0.0316 µM, first compound 0.0316 µM
[2] = second compound 0.0316 µM, first compound 0.1 µM
[3] = second compound 0.0316 µM, first compound 0.316 µM
[4] = second compound 0.0316 µM, first compound 1 µM
[5] = second compound 0.0316 µM, first compound 3.16 µM
[6] = second compound 0.0316 µM, first compound 10 µM
[7] = second compound 0.1 µM, first compound 0.0316 µM
[8] = second compound 0.1 µM, first compound 0.1 µM
[9] = second compound 0.1 µM, first compound 0.316 µM
[10] = second compound 0.1 µM, first compound 1 µM
[11] = second compound 0.1 µM, first compound 3.16 µM
[12] = second compound 0.1 µM, first compound 10 µM
[13] = second compound 0.316 µM, first compound 0.0316 µM
[14] = second compound 0.316 µM, first compound 0.1 µM
[15] = second compound 0.316 µM, first compound 0.316 µM
[16] = second compound 0.316 µM, first compound 1 µM
[17] = second compound 0.316 µM, first compound 3.16 µM
[18] = second compound 0.316 µM, first compound 10 µM
[19] = second compound 1 µM, first compound 0.0316 µM
[20] = second compound 1 µM, first compound 0.1 µM
[21] = second compound 1 µM, first compound 0.316 µM
[22] = second compound 1 µM, first compound 1 µM
[23] = second compound 1 µM, first compound 3.16 µM
[24] = second compound 1 µM, first compound 10 µM
[25] = second compound 3.16 µM, first compound 0.0316 µM
[26] = second compound 3.16 µM, first compound 0.1 µM
[27] = second compound 3.16 µM, first compound 0.316 µM
[28] = second compound 3.16 µM, first compound 1 µM
[29] = second compound 3.16 µM, first compound 3.16 µM
[30] = second compound 3.16 µM, first compound 10 µM
[31] = second compound 10 µM, first compound 0.0316 µM
[32] = second compound 10 µM, first compound 0.1 µM
[33] = second compound 10 µM, first compound 0.316 µM
[34] = second compound 10 µM, first compound 1 µM
[35] = second compound 10 µM, first compound 3.16 µM
[36] = second compound 10 µM, first compound 10 µM
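Note: spheroids exposed to compounds for seven days.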
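Throughout, for viability, T/C: 100% = DMSO vehicle control viability.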

C#Cc1c(F)ccc2cc(O)cc(-c3ncc4c(N5CC6CCC(C5)N6)nc(OCC56CCCN5CC(F)C6)nc4c3F)c12 (stereo not drawn) + COC1C(OC(N)=O)C(O)C(Oc2ccc3c(O)c(NC(=O)c4ccc(O)c(CC=C(C)C)c4)c(=O)oc3c2C)OC1(C)C
inactive: viability, T/C [1] 99.2% | viability, T/C [2] 111% | viability, T/C [3] 66.3% | viability, T/C [4] 88.7% | viability, T/C [5] 63.7% | viability, T/C [6] 34.5% | viability, T/C [7] 108% | viability, T/C [8] 109% | viability, T/C [9] 77.4% | viability, T/C [10] 89.5% | viability, T/C [11] 81.5% | viability, T/C [12] 44.3% | viability, T/C [13] 119% | viability, T/C [14] 113% | viability, T/C [15] 82.5% | viability, T/C [16] 97.3% | viability, T/C [17] 76.1% | viability, T/C [18] 29.4% | viability, T/C [19] 89.1% | viability, T/C [20] 91.8% | viability, T/C [21] 95.4% | viability, T/C [22] 82% | viability, T/C [23] 62.8% | viability, T/C [24] 27.8% | viability, T/C [25] 96.9% | viability, T/C [26] 84.9% | viability, T/C [27] 95% | viability, T/C [28] 79.2% | viability, T/C [29] 78.2% | viability, T/C [30] 23.2% | viability, T/C [31] 103% | viability, T/C [32] 87.2% | viability, T/C [33] 76.1% | viability, T/C [34] 76.8% | viability, T/C [35] 71.5% | viability, T/C [36] 27.1%
4.77 µM: IC50 (second compound 1 µM)
4.96 µM: IC50 (second compound 10 µM)
5.82 µM: IC50 (second compound 0.316 µM)
5.38 µM: IC50 (second compound 0.0316 µM)
9.08 µM: IC50 (second compound 0.1 µM)
5.53 µM: IC50 (second compound 3.16 µM)

CC(C)n1c(=O)n(C)c2cnc3cc(F)c(-c4ccc(OCCCN5CCCCC5)nc4)cc3c21 + Cc1cccc(N(C)C(=O)C2C(O)CCN2c2nc(C)cc(C(F)(F)F)c2C#N)c1
3.73 µM: IC50 (second compound 1 µM)
3.93 µM: IC50 (second compound 0.0316 µM)
3.68 µM: IC50 (second compound 0.316 µM)
4.43 µM: IC50 (second compound 3.16 µM)
2.19 µM: IC50 (second compound 10 µM)
3.63 µM: IC50 (second compound 0.1 µM)
inactive: viability, T/C [1] 83.1% | viability, T/C [2] 75.4% | viability, T/C [3] 89.5% | viability, T/C [4] 84.4% | viability, T/C [5] 58.1% | viability, T/C [6] 14.7% | viability, T/C [7] 87.9% | viability, T/C [8] 78.6% | viability, T/C [9] 77% | viability, T/C [10] 66.8% | viability, T/C [11] 59.3% | viability, T/C [12] 15.5% | viability, T/C [13] 88.9% | viability, T/C [14] 82.6% | viability, T/C [15] 70.3% | viability, T/C [16] 81.6% | viability, T/C [17] 55.6% | viability, T/C [18] 12.8% | viability, T/C [19] 75.5% | viability, T/C [20] 97.5% | viability, T/C [21] 101% | viability, T/C [22] 75.9% | viability, T/C [23] 57% | viability, T/C [24] 15.5% | viability, T/C [25] 80.6% | viability, T/C [26] 87.9% | viability, T/C [27] 77.5% | viability, T/C [28] 98.9% | viability, T/C [29] 65.5% | viability, T/C [30] 12.7% | viability, T/C [31] 70% | viability, T/C [32] 66.3% | viability, T/C [33] 68.5% | viability, T/C [34] 52.7% | viability, T/C [35] 49.5% | viability, T/C [36] 12%

CNCc1ccc(-c2[nH]c3cc(F)cc4c3c2CCNC4=O)cc1 + Cc1cccc(N(C)C(=O)C2C(O)CCN2c2nc(C)cc(C(F)(F)F)c2C#N)c1
> 10 µM: IC50 (second compound 0.0316 µM) | IC50 (second compound 0.1 µM) | IC50 (second compound 0.316 µM) | IC50 (second compound 1 µM) | IC50 (second compound 3.16 µM) | IC50 (second compound 10 µM)
inactive: viability, T/C [1] 110% | viability, T/C [2] 106% | viability, T/C [3] 83.5% | viability, T/C [4] 92.7% | viability, T/C [5] 101% | viability, T/C [6] 58.3% | viability, T/C [7] 91.9% | viability, T/C [8] 87% | viability, T/C [9] 95.9% | viability, T/C [10] 91.7% | viability, T/C [11] 85.4% | viability, T/C [12] 78.5% | viability, T/C [13] 92.8% | viability, T/C [14] 89.4% | viability, T/C [15] 109% | viability, T/C [16] 110% | viability, T/C [17] 126% | viability, T/C [18] 79.9% | viability, T/C [19] 82.3% | viability, T/C [20] 120% | viability, T/C [21] 104% | viability, T/C [22] 119% | viability, T/C [23] 113% | viability, T/C [24] 70.7% | viability, T/C [25] 102% | viability, T/C [26] 99% | viability, T/C [27] 110% | viability, T/C [28] 89.2% | viability, T/C [29] 96.6% | viability, T/C [30] 63.9% | viability, T/C [31] 73.7% | viability, T/C [32] 81.2% | viability, T/C [33] 88.4% | viability, T/C [34] 94.4% | viability, T/C [35] 78.5% | viability, T/C [36] 57.2%

C=CC(=O)N1CCN(c2nc(=O)n(-c3c(C)ccnc3C(C)C)c3nc(-c4c(O)cccc4F)c(F)cc23)C(C)C1 (stereo not drawn) + COC1C(OC(N)=O)C(O)C(Oc2ccc3c(O)c(NC(=O)c4ccc(O)c(CC=C(C)C)c4)c(=O)oc3c2C)OC1(C)C
> 10 µM: IC50 (second compound 0.0316 µM) | IC50 (second compound 0.1 µM) | IC50 (second compound 0.316 µM) | IC50 (second compound 1 µM) | IC50 (second compound 3.16 µM) | IC50 (second compound 10 µM)
inactive: viability, T/C [1] 111% | viability, T/C [2] 114% | viability, T/C [3] 121% | viability, T/C [4] 111% | viability, T/C [5] 131% | viability, T/C [6] 88.7% | viability, T/C [7] 113% | viability, T/C [8] 116% | viability, T/C [9] 116% | viability, T/C [10] 146% | viability, T/C [11] 127% | viability, T/C [12] 82.4% | viability, T/C [13] 111% | viability, T/C [14] 133% | viability, T/C [15] 103% | viability, T/C [16] 125% | viability, T/C [17] 135% | viability, T/C [18] 78% | viability, T/C [19] 97.3% | viability, T/C [20] 123% | viability, T/C [21] 126% | viability, T/C [22] 109% | viability, T/C [23] 112% | viability, T/C [24] 103% | viability, T/C [25] 98.3% | viability, T/C [26] 124% | viability, T/C [27] 115% | viability, T/C [28] 132% | viability, T/C [29] 123% | viability, T/C [30] 82.7% | viability, T/C [31] 115% | viability, T/C [32] 102% | viability, T/C [33] 112% | viability, T/C [34] 113% | viability, T/C [35] 145% | viability, T/C [36] 85.3%
